ChEMBL document CHEMBL1147043, “Comparative metabolism of radiolabeled muraglitazar in animals and humans by quantitative and qualitative metabolite profiling” (Drug Metab Dispos, 2007)

Experiments:
[1] = Biodistribution in orally dosed cynomolgus monkey urine assessed as 8-hydroxy-O-demethyl muraglitazar level by LC/MS analysis; assay type: ADME, organism-based, Macaca fascicularis; settings: in vivo, po
[2] = Biodistribution in orally dosed cynomolgus monkey urine assessed as muraglitazar glucuronide level by LC/MS analysis; assay type: ADME, organism-based, Macaca fascicularis; settings: in vivo, po
Hepatocyte [3] = test: Metabolic stability in Sprague-Dawley rat hepatocytes assessed as muraglitazar glucuronide level by LC/MS analysis relative to control; assay type: ADME, cell-based
[4] = Biodistribution in orally dosed cynomolgus monkey feces assessed as O-demethyl muraglitazar level by LC/MS analysis; assay type: ADME, organism-based, Macaca fascicularis; settings: in vivo, po
Plasma [5] = test: Biodistribution in orally dosed cynomolgus monkey plasma assessed as 8-hydroxy-O-demethyl muraglitazar level after 4 hrs by LC/MS analysis; assay type: ADME, organism-based, Macaca fascicularis; settings: in vivo, po
Hepatocyte [6] = test: Metabolic stability in Sprague-Dawley rat hepatocytes assessed as 12,17-dihydroxy muraglitazar level by LC/MS analysis relative to control; assay type: ADME, cell-based
[7] = Biodistribution in orally dosed human feces assessed as 12-hydroxy-O-demethyl muraglitazar level by LC/MS analysis; assay type: ADME, organism-based; settings: in vivo, po
[8] = Biodistribution in orally dosed cynomolgus monkey urine assessed as O-dealkyl muraglitazar level by LC/MS analysis; assay type: ADME, organism-based, Macaca fascicularis; settings: in vivo, po
Rattus norvegicus [9] = test: Biodistribution in orally dosed Sprague-Dawley rat urine assessed as 8-hydroxy muraglitazar level by LC/MS analysis; assay type: ADME, organism-based; settings: in vivo, po
Canis familiaris = test: Cmax in Beagle dog at 2 mg/kg, po after 4 hrs; assay type: ADME, organism-based, Canis lupus familiaris; set-up: dose 2 mg/kg, route oral; settings: in vivo
[10] = Drug concentration in bile duct-cannulated cynomolgus monkey bile at 5 mg/kg, po after 48 hrs; assay type: ADME, organism-based, Macaca fascicularis; set-up: dose 5 mg/kg, route oral; settings: in vivo
[11] = Fecal excretion of compound in orally dosed cynomolgus monkey within 96 hrs; assay type: ADME, organism-based, Macaca fascicularis; settings: faeces, po, read-out: Activity
[12] = Metabolic stability in cynomolgus monkey hepatocytes assessed as di-oxygenated muraglitazar level by LC/MS analysis relative to control; assay type: ADME, cell-based, Macaca fascicularis, Hepatocyte
Plasma [13] = test: Biodistribution in orally dosed Beagle dog plasma assessed as O-demethyl muraglitazar level after 1 hr by LC/MS analysis; assay type: ADME, organism-based, Canis lupus familiaris; settings: in vivo, po
Plasma [14] = test: Biodistribution in orally dosed cynomolgus monkey plasma assessed as muraglitazar 12-carboxylic acid level after 4 hrs by LC/MS analysis; assay type: ADME, organism-based, Macaca fascicularis; settings: in vivo, po
Hepatocyte [15] = test: Metabolic stability in human hepatocytes assessed as O-demethyl muraglitazar level by LC/MS analysis relative to control; assay type: ADME, cell-based
[16] = Drug concentration in bile duct-cannulated Sprague-Dawley rat urine assessed as recovery of radioactive dose at 11 mg/kg, po after 24 hrs; assay type: ADME, organism-based; set-up: dose 11 mg/kg, route oral; settings: in vivo
[17] = Biodistribution in orally dosed cynomolgus monkey feces assessed as muraglitazar glucuronide level by LC/MS analysis; assay type: ADME, organism-based, Macaca fascicularis; settings: in vivo, po
Plasma [18] = test: Biodistribution in orally dosed Beagle dog plasma assessed as O-Dealkyl muraglitazar level after 4 hrs by LC/MS analysis; assay type: ADME, organism-based, Canis lupus familiaris; settings: in vivo, po
[19] = Biodistribution in orally dosed human feces assessed as muraglitazar glucuronide level by LC/MS analysis; assay type: ADME, organism-based; settings: in vivo, po
Rattus norvegicus [20] = test: AUC (0 to T) in Sprague-Dawley rat at 10 mg/kg, po after 24 hrs; assay type: ADME, organism-based, Plasma; set-up: time < 24 hr, dose 10 mg/kg, route oral; settings: in vivo
[21] = Biodistribution in orally dosed cynomolgus monkey urine assessed as 17-hydroxy-O-demethyl muraglitazar level by LC/MS analysis; assay type: ADME, organism-based, Macaca fascicularis; settings: in vivo, po
Plasma [22] = test: Biodistribution in orally dosed cynomolgus monkey plasma assessed as 17-hydroxy-O-demethyl muraglitazar level after 4 hrs by LC/MS analysis; assay type: ADME, organism-based, Macaca fascicularis; settings: in vivo, po
Hepatocyte [23] = test: Metabolic stability in human hepatocytes assessed as hydroxyl-O-demethyl muraglitazar glucuronide level by LC/MS analysis relative to control; assay type: ADME, cell-based
[24] = Biodistribution in orally dosed cynomolgus monkey urine assessed as 12,17-dihydroxy muraglitazar level by LC/MS analysis; assay type: ADME, organism-based, Macaca fascicularis; settings: in vivo, po
[25] = Fecal excretion of compound in bile duct-cannulated orally dosed cynomolgus monkey within 48 hrs; assay type: ADME, organism-based, Macaca fascicularis; settings: faeces, po, read-out: Activity
Plasma [26] = test: Biodistribution in orally dosed human plasma assessed as O-Dealkyl muraglitazar level after 4 hrs by LC/MS analysis; assay type: ADME, organism-based; settings: in vivo, po
[27] = Drug concentration in bile duct-cannulated CD1 mouse bile at 1 mg/kg, po after 24 hrs; assay type: ADME, organism-based; set-up: dose 1 mg/kg, route oral; settings: in vivo
Plasma [28] = test: Biodistribution in orally dosed Beagle dog plasma assessed as O-demethyl muraglitazar level after 4 hrs by LC/MS analysis; assay type: ADME, organism-based, Canis lupus familiaris; settings: in vivo, po
[29] = Biodistribution in orally dosed Beagle dog feces assessed as 12-hydroxy muraglitazar level by LC/MS analysis; assay type: ADME, organism-based, Canis lupus familiaris; settings: in vivo, po
[30] = Drug concentration in Sprague-Dawley rat urine at 11 mg/kg, po after 12 hrs; assay type: ADME, organism-based; set-up: dose 11 mg/kg, route oral; settings: read-out: Drug uptake
[31] = Drug concentration in human bile assessed as recovery of radioactive dose at 20 mg, po after 3 to 8 hrs; assay type: ADME, organism-based; settings: in vivo
[32] = Biodistribution in orally dosed cynomolgus monkey urine assessed as 9-hydroxy-O-demethyl muraglitazar level by LC/MS analysis; assay type: ADME, organism-based, Macaca fascicularis; settings: in vivo, po
Homo sapiens = test: Cmax in human at 10 mg, po after 72 hrs; assay type: ADME, organism-based; set-up: dose 10 mg, route oral; settings: in vivo
Hepatocyte [33] = test: Metabolic stability in Sprague-Dawley rat hepatocytes assessed as O-demethyl muraglitazar glucuronide level by LC/MS analysis relative to control; assay type: ADME, cell-based
[34] = Biodistribution in orally dosed cynomolgus monkey feces assessed as 17-hydroxy muraglitazar level by LC/MS analysis; assay type: ADME, organism-based, Macaca fascicularis; settings: in vivo, po
[35] = Biodistribution in orally dosed cynomolgus monkey feces assessed as 12-hydroxy muraglitazar level by LC/MS analysis; assay type: ADME, organism-based, Macaca fascicularis; settings: in vivo, po
Plasma [36] = test: Biodistribution in orally dosed cynomolgus monkey plasma assessed as 12-dihydroxy muraglitazar level after 4 hrs by LC/MS analysis; assay type: ADME, organism-based, Macaca fascicularis; settings: in vivo, po
Plasma [37] = test: Biodistribution in orally dosed cynomolgus monkey plasma assessed as 12-dihydroxy muraglitazar level after 1 hr by LC/MS analysis; assay type: ADME, organism-based, Macaca fascicularis; settings: in vivo, po
Plasma [38] = test: Biodistribution in orally dosed Beagle dog plasma assessed as O-Dealkyl muraglitazar level after 1 hr by LC/MS analysis; assay type: ADME, organism-based, Canis lupus familiaris; settings: in vivo, po
Rattus norvegicus [39] = test: Biodistribution in orally dosed Sprague-Dawley rat urine assessed as muraglitazar glucuronide level by LC/MS analysis; assay type: ADME, organism-based; settings: in vivo, po
Hepatocyte [40] = test: Metabolic stability in Sprague-Dawley rat hepatocytes assessed as O-demethyl muraglitazar level by LC/MS analysis relative to control; assay type: ADME, cell-based
[41] = Drug concentration in human urine assessed as recovery of radioactive dose at 10 mg, po after 240 hrs; assay type: ADME, organism-based; settings: in vivo
Hepatocyte [42] = test: Metabolic stability in Sprague-Dawley rat hepatocytes assessed as 9-hydroxy-O-demethyl muraglitazar level by LC/MS analysis relative to control; assay type: ADME, cell-based
Plasma [43] = test: Biodistribution in orally dosed cynomolgus monkey plasma assessed as O-Dealkyl muraglitazar level after 1 hr by LC/MS analysis; assay type: ADME, organism-based, Macaca fascicularis; settings: in vivo, po
Plasma [44] = test: Biodistribution in orally dosed cynomolgus monkey plasma assessed as O-demethyl muraglitazar level after 4 hrs by LC/MS analysis; assay type: ADME, organism-based, Macaca fascicularis; settings: in vivo, po
[45] = Drug concentration in Beagle dog urine assessed as recovery of radioactive dose at 1.9 mg/kg, po after 168 hrs; assay type: ADME, organism-based, Canis lupus familiaris; set-up: dose 1.9 mg/kg, route oral; settings: in vivo
[46] = Metabolic stability in CD1 mouse hepatocytes assessed as 12,17-dihydroxy muraglitazar level by LC/MS analysis relative to control; assay type: ADME, cell-based, Hepatocyte
[47] = Biodistribution in orally dosed cynomolgus monkey feces assessed as O-dealkyl muraglitazar level by LC/MS analysis; assay type: ADME, organism-based, Macaca fascicularis; settings: in vivo, po
[48] = Biodistribution in orally dosed human urine assessed as 12-hydroxy-O-demethyl muraglitazar level by LC/MS analysis; assay type: ADME, organism-based; settings: in vivo, po
Rattus norvegicus [49] = test: Biodistribution in orally dosed Sprague-Dawley rat urine assessed as 12-hydroxy muraglitazar level by LC/MS analysis; assay type: ADME, organism-based; settings: in vivo, po
[50] = Metabolic stability in CD1 mouse hepatocytes assessed as 12-hydroxy-O-demethyl muraglitazar level by LC/MS analysis relative to control; assay type: ADME, cell-based, Hepatocyte
[51] = Biodistribution in orally dosed human feces assessed as O-dealkyl muraglitazar level by LC/MS analysis; assay type: ADME, organism-based; settings: in vivo, po

COc1ccc(OC(=O)N(CC(=O)O)Cc2ccc(OCCc3nc(-c4ccccc4)oc3C)cc2)cc1 [MURAGLITAZAR]
Drug uptake [1]: 0.08% | Drug uptake [2]: 0.02% | Drug uptake (Hepatocyte [3]): 0.5% | Drug uptake [4]: 7.24% | Drug uptake (Plasma [5]): 0.1% | Drug uptake (Hepatocyte [6]): 0.3% | Drug uptake [7]: 11.45% | Drug uptake [8]: 1.04% | Drug uptake (Rattus norvegicus [9]): < 0.01% | Cmax (Canis familiaris): 1 ugequiv/ml | Drug uptake [10]: 0.007 mgequiv/ml | dose excreted at 96 h [11]: 75% | Drug uptake [12]: 1.3% | Drug uptake (Plasma [13]): 1% | Drug uptake (Plasma [14]): < 0.05% | Drug uptake (Hepatocyte [15]): 2.3% | Drug uptake [16]: 0.98% | Drug uptake [17]: 0.8% | Drug uptake (Plasma [18]): 3% | Drug uptake [19]: 0.06% | AUC (Rattus norvegicus [20]): 105 ugequiv.h/ml | Drug uptake [21]: 0.01% | Drug uptake (Plasma [22]): < 0.05% | Drug uptake (Hepatocyte [23]): < 0.2% | Drug uptake [24]: 0.13% | dose excreted at 48 h [25]: 15% | Drug uptake (Plasma [26]): < 0.05% | Drug uptake [27]: 0.375 mgequiv/ml | Drug uptake (Plasma [28]): 3% | Drug uptake [29]: 1.1% | dose excreted at 12 h [30]: 0.51% | Drug uptake [31]: 39.9% | Drug uptake [32]: 0.18% | Cmax (Homo sapiens): 1.4 ugequiv/ml | Drug uptake (Hepatocyte [33]): < 0.2% | Drug uptake [34]: 25.73% | Drug uptake [35]: 7.24% | Drug uptake (Plasma [36]): 1.6% | Drug uptake (Plasma [37]): 0.9% | Drug uptake (Plasma [38]): 2% | Drug uptake (Rattus norvegicus [39]): < 0.01% | Drug uptake (Hepatocyte [40]): 2.2% | Drug uptake [41]: 2.6% | Drug uptake (Hepatocyte [42]): < 0.2% | Drug uptake (Plasma [43]): 0.3% | Drug uptake (Plasma [44]): 0.3% | Drug uptake [45]: 0.5% | Drug uptake [46]: 0.8% | Drug uptake [47]: 2.81% | Drug uptake [48]: 0.16% | Drug uptake (Rattus norvegicus [49]): 0.03% | Drug uptake [50]: 3% | Drug uptake [51]: 0.8%
